The values below come from patent US20040091578A1 (priority 2001, published 2004).

One assay has as its target T1, glutaredoxin (Escherichia coli, UniProt P68688).
T1 sequence (P68688 1-85): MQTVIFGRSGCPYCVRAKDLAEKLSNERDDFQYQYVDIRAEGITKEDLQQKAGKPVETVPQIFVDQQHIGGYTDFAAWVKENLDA
Kind of assay: Reduction by glutaredoxin, mBBr/SDS-PAGE with densitometric scanning. The format is biochemical. The method, then:
Direct reduction of the proteins under study was determined by a modification of the method of Crawford et al. (Crawford, N. A. et al. (1989), Arch. Biochem. Biophys. 271:223-239). The reaction was carried out in 100 mM potassium phosphate buffer, pH 7.1, containing 10 mM EDTA and 16% glycerol in a final volume of 0.1 ml. As indicated, 0.7 μg (0.1 μM) NTR and 1 μg (0.8 μM) thioredoxin (both routinely from E. coli were added to 70 μl of the buffer solution containing 1 mM NADPH and 10 μg (2 to 17 μM) of target protein. When thioredoxin was reduced by dithiothreitol (DTT, 0.5 mM), NADPH and NTR were omitted. Assays with reduced glutathione were performed similarly, but at a final concentration of 1 mM. After incubation for 20 min, 100 nmoles of mBBr were added and the reaction was continued for another 15 min. To stop the reaction and derivatize excess mBBr, 10 μl of 10% SDS and 10 μl of 100 mM β-mercaptoethanol were added and the samples were then applied to the gels. […]
This ability was tested, using glutaredoxin from E. coli and the seed proteins currently under study. Reduction activity was monitored by the mBBr/SDS polyacrylamide gel electrophoresis procedure coupled with densitometric scanning.

The target in assay [1] is T2, NADP-Malate Dehydrogenase (Zea mays, UniProt P15719).
T2 construct: were purified from leaves of corn; from tissue; host or cells: corn leaves
Description: Activation of chloroplast NADP-malate dehydrogenase by thioredoxin-reduced proteins. The format is biochemical, corn. Conditions: 20 μg protein with DTT-reduced thioredoxin h. The procedure: (§1) The NADP-MDH, FBPase, NTR and Thioredoxin h assay methods were according to Florencio, F. J. et al. (1988), Arch. Biochem. Biophys. 266:496-507 with slight modifications as indicated. For enzyme activation assays, the preincubation time was 20 min unless specified otherwise.
In one study 20 mM β-mercaptoethanol (β-MET) was used instead of DTT. Following preincubation, NADP-MDH was assayed spectrophoto-metrically.
(§2) The Wada et al., 1981 protocol was used for assaying NADP-malate dehydrogenase and fructose 1,6 bisphosphatase in the presence of thioredoxin and 2S protein. Assays were conducted under conditions in which the amount of added thioredoxin was sufficient to reduce the castor 2S protein but insufficient to activate the target enzyme appreciably. All assays were at 25° C. Unless otherwise indicated, the thioredoxin and NTR used were from E. coli. The 2S protein was monitored during purification by mBBr/SDS-polyacrylamide gel electrophoresis following its reduction by dithiothreitol and E. coli thioredoxin (Crawford et al., 1989; Kobrehel et al., 1991).

The target in a further assay is T3, Fructose Bisphosphatase (Spinacia oleracea, UniProt P22418).
T3 construct: purified from leaves of corn (Jacquot, J.-P. et al. (1981), Plant Physiol. 68:300-304) and spinach; from tissue; host or cells: spinach leaves
T3 sequence (P22418 58-415): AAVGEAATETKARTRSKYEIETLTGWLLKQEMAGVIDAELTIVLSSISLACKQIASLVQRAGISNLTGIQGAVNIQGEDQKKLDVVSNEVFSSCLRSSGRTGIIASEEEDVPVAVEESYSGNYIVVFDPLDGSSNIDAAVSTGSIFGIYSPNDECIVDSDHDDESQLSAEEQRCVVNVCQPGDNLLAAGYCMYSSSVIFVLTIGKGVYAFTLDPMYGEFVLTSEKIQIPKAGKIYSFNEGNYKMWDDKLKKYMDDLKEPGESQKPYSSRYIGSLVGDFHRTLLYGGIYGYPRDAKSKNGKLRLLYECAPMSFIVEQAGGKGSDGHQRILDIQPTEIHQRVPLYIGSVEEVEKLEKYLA
Description: Activation of chloroplast fructose bisphosphatase by thioredoxin-reduced proteins. Format: biochemical, spinach. The conditions noted are these: 20 μg protein, 1 μg E. coli thioredoxin, DTT; corrected for thioredoxin alone. The method, then: as §1, §2

T2 sequence (P15719 41-432): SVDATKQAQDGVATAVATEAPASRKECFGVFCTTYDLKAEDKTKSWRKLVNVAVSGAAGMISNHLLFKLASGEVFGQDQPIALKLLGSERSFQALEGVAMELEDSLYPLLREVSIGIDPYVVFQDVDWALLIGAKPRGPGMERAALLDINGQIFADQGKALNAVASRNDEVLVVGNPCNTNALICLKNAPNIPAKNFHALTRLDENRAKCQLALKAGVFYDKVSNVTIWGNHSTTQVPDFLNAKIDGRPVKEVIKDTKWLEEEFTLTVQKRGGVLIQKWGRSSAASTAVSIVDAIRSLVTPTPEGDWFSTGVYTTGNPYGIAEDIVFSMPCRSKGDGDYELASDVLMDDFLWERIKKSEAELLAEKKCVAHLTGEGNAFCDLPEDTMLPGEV

Take Aprotinin [Bovine lung (Aprotinin)]: the “percentage reduction by glutaredoxin relative to E. coli thioredoxin” value on glutaredoxin was “not affected”. The “ACTIVITY, NADP-MDH” value in assay [1] is listed as “Trace”. Besides, the “ACTIVITY, FBPase” value on Fructose Bisphosphatase is 2 nkat/mg.
